Results taken from US20090275546A1, “Diagnostic tests and personalized treatment regimes for cancer stem cells” (Istituto Superiore di Sanita, priority 2008, published 2009).
Entries after “also recorded” stand apart in the source; their conditions may differ. Like-named read-outs stand apart in the source and are kept apart here.

Key:
colon CSCs [1] = test: kinase inhibitor library screening, ATP-based viability assay; type: cell-based, human
Procedure: A flowchart showing the steps of the screenings performed on colon CSCs, is depicted in FIG. 5. Before treatment with inhibitors, colon CSCs undergo trypsin/EDTA dissociation in order to be consistently plated into 96-well microtiter plates. After 48 h cells recover from dissociation and form spheroids again. Inhibitors are subsequently added to the cells as single agents while ATP-based-viability assay are performed after another 48 h.
Viability controls are cells treated with DMSO whereas staurosporin-treated cells are positive controls of death.
(§1) Cells were incubated at 37° C. for a variable time, depending on the size and on the sensitivity of each colon CSC line, until single cell suspension was achieved. Cells were then washed once in fresh medium and plated into 96-well microtiter plates in 80 μL volume. The number of cells plated ranged from 2000 to 5000 per well. Drugs were added after 48 h by dispensing each well with 20 μL of medium containing 5× concentrated compounds. We purchased the kinase inhibitor library from Enzo Life Sciences International, Inc (formerly BIOMOL International, L.P., PA, USA) and used each single inhibitor at a final […] concentration. As a control DMSO was added to cells at a final concentration of 0.1% (v/v).
Measure of cell viability was performed using CelltiterGlo® luminescent assay (Promega Corporation, Madison, Wis., USA) and luminescence was recorded on Beckman Coulter DTX880 multimode reader (Beckman Coulter Inc., Fullerton, Calif., USA) with an integration time of 100 ms.
Statistical analysis and IC50 calculations were performed with the aid of Microsoft Excel (Microsoft Corporation, www.microsoft.com) and GraphPad Prism version 4.00 for Windows, (GraphPad Software, San Diego, Calif., www.graphpad.com) while hierarchical clustering was performed with TMev v4.3.01 [10]. Normalized viability represents the signal intensity of each replicate divided by the average of single plate DMSO controls (in percent). Dunnett's post-test was performed on at least three independent experiments for each colon CSC line to calculate statistical significance versus DMSO controls. P values were subsequently clustered by using Euclidean distance as metric and complete linkage as a linkage method.

[2] = target: casein kinase I and PKA, insulin receptor kinase fragment; conditions: range over casein kinase I; cited from earlier work
[3] = tested on: CTSC#85 (TRAIL-resistant colon CSC line); test: drug combination experiment; type: cell-based, human; conditions: 24 h, TRAIL IC50/17-AAG IC50
Procedure: Normalized viability at 24 h is plotted against drug combinations. […] Recombinant human Killer TRAIL was purchased from Alexis (San Diego, Calif., USA) while Geldanamycin, 17-AAG and 17-DMAG were purchased from Calbiochem (Nottingham, UK). All agents were diluted into fresh medium at the specified concentrations. Measure of cell viability was performed using CelltiterGlo® luminescent assay (Promega Corporation, Madison, Wis., USA) and luminescence was recorded on Beckman Coulter DTX880 multimode reader (Beckman Coulter Inc., Fullerton, Calif., USA) with an integration time of 100 ms.

colon cancer cell lines = conditions: commercial (non-stem) cell lines, colon and lung; cited from earlier work
CTSC#85 = test: dose-response analysis, viability (CelltiterGlo); type: cell-based, human; conditions: escalating doses
[4] = target: platelet-derived growth factor receptor tyrosine kinase (Homo sapiens, UniProt P09619); conditions: cited from earlier work
human PDGF a-receptors = human PDGF a-receptors (Homo sapiens, UniProt P16234); conditions: cited from earlier work
human PDGF b-receptors = human PDGF b-receptors (Homo sapiens, UniProt P09619); conditions: cited from earlier work
c-kit = c-kit (Homo sapiens, UniProt P10721); conditions: at 5 μM; cited from earlier work
Sequence of c-kit (P10721 26-976): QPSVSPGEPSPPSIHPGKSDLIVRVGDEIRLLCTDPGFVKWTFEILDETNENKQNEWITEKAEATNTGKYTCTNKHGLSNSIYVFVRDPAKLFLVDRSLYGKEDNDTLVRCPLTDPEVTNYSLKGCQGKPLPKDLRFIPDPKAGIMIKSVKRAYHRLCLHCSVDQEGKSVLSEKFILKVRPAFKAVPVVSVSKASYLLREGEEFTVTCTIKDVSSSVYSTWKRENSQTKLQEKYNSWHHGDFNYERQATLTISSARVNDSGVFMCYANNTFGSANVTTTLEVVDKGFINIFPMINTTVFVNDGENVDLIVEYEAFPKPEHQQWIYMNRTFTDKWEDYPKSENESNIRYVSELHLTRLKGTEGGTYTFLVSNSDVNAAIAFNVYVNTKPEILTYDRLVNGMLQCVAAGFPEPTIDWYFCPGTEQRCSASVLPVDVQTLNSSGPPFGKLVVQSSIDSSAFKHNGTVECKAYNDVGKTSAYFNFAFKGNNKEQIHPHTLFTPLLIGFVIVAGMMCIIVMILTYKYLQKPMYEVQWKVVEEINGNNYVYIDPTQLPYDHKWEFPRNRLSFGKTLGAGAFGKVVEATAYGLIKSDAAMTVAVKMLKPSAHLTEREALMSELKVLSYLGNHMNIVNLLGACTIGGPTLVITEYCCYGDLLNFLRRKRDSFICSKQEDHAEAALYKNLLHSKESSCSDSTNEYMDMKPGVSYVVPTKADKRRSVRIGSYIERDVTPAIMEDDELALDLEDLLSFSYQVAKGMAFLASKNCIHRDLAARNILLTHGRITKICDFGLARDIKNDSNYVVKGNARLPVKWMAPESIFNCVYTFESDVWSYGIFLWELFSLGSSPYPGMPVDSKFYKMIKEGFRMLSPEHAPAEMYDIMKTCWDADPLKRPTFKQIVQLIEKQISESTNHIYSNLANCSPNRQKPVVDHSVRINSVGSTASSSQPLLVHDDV

[5] = tested on: TNF-a-inducible phosphorylation of IkBa; conditions: cited from earlier work
protein kinase G = conditions: cited from earlier work
[6] = target: myosin light chain kinase; conditions: cited from earlier work
rat brain CaM kinase II = conditions: cited from earlier work
CaM kinase II = conditions: cited from earlier work
protein kinase A = protein kinase A (Homo sapiens, UniProt P17612); conditions: cited from earlier work
protein kinase C (PKC) = conditions: cited from earlier work
[7] = tested on: GSK-3 in primary adipocytes; conditions: cited from earlier work
[8] = target: T1, GSK-3b immunoprecipitates (Homo sapiens, UniProt P49841); conditions: cited from earlier work
T1 construct: host or cells: immunoprecipitates
T1 sequence (P49841 whole entry): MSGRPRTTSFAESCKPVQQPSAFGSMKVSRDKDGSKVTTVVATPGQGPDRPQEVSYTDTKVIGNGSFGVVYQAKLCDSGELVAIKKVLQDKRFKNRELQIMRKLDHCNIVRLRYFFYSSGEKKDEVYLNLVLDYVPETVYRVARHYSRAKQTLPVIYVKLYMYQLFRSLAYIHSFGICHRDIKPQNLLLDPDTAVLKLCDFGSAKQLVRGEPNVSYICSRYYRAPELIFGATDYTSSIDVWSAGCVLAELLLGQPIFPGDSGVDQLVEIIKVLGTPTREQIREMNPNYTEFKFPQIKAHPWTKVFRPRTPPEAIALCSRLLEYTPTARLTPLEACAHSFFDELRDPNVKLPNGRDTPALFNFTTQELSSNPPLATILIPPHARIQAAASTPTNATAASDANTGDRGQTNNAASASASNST

PKCd = PKCd (Homo sapiens, UniProt Q05655); conditions: cited from earlier work
Sequence of PKCd (Q05655 whole entry, species assumed, canonical isoform): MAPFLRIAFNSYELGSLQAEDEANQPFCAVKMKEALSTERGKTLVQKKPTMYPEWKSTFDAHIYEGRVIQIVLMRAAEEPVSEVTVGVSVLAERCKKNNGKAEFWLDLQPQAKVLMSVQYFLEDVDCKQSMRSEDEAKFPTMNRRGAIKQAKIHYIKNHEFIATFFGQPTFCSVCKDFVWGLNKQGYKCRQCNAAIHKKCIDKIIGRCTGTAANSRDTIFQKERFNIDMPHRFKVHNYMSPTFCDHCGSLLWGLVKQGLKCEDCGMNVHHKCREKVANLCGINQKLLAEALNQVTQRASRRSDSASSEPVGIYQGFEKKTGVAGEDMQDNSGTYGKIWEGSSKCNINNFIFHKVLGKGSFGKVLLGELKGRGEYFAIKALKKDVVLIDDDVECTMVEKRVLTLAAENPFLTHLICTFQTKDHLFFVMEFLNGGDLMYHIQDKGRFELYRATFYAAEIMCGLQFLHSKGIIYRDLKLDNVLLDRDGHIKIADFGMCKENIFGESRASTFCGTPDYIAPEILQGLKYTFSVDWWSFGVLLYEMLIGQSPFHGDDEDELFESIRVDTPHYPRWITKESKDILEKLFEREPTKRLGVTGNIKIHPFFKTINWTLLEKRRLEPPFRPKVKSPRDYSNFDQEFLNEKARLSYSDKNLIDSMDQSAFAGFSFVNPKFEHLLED

[9] = tested on: PKCa, PKCb, and PKCg isoforms; conditions: cited from earlier work
CaM kinase III = CaM kinase III (Homo sapiens, UniProt O00418); conditions: cited from earlier work
Sequence of CaM kinase III (O00418 whole entry): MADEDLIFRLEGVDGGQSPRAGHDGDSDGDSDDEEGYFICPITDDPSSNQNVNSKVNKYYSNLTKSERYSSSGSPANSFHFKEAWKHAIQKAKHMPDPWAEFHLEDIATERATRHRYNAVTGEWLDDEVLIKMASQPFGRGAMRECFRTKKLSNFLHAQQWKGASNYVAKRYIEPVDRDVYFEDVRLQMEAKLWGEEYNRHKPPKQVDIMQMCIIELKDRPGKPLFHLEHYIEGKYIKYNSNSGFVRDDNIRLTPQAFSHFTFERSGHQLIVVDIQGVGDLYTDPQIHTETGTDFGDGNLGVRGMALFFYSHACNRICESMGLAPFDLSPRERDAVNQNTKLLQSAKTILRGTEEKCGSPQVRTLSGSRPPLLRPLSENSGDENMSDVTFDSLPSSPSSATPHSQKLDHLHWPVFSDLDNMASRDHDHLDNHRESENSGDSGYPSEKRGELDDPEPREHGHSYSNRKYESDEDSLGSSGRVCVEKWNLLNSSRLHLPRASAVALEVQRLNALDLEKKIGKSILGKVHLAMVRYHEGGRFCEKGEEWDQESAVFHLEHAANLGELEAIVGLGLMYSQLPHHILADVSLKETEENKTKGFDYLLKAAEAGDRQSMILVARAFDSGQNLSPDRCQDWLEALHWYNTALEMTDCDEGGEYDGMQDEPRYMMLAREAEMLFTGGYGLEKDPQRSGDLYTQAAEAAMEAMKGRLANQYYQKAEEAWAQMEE

PKCe, PKCh, and PKCz = conditions: reduced inhibitory activity; cited from earlier work
c-Raf = c-Raf (Homo sapiens, UniProt P04049); conditions: selectivity c-Raf over B-Raf; cited from earlier work
Sequence of c-Raf (P04049 whole entry): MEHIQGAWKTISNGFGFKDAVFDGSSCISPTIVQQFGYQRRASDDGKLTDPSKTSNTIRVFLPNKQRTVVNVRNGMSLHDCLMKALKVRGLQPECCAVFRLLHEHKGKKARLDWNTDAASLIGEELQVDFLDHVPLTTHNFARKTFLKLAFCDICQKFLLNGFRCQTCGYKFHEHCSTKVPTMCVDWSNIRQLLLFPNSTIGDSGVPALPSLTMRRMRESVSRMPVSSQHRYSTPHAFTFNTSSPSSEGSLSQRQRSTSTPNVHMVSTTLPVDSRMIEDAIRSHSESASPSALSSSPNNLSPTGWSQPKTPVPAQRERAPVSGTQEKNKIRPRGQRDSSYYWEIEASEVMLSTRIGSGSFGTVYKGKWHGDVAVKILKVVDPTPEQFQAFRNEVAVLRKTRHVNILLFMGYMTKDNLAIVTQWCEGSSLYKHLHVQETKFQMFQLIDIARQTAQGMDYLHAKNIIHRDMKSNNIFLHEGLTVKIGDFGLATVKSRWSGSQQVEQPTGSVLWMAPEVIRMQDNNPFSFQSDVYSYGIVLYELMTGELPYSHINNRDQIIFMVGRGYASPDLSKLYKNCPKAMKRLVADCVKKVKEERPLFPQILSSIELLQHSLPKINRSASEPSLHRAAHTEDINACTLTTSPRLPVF

[10] = tested on: many other protein kinases; conditions: even at 50 μM; cited from earlier work
SAPK2a/p38a = SAPK2a/p38a (Homo sapiens, UniProt Q16539); conditions: cited from earlier work
Sequence of SAPK2a/p38a (Q16539 whole entry): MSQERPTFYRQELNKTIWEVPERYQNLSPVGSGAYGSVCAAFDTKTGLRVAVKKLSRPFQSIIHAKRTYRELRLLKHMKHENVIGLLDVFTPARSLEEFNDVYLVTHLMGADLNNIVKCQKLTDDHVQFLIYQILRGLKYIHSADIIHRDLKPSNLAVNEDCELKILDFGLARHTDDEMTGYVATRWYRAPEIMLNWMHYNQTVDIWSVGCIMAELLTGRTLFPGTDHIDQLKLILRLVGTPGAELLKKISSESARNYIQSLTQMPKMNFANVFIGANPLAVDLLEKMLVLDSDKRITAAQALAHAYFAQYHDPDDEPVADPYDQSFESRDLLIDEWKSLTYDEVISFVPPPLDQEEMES

SAPK2b/p38b2 = SAPK2b/p38b2 (Homo sapiens, UniProt Q15759); conditions: cited from earlier work
Sequence of SAPK2b/p38b2 (Q15759 whole entry): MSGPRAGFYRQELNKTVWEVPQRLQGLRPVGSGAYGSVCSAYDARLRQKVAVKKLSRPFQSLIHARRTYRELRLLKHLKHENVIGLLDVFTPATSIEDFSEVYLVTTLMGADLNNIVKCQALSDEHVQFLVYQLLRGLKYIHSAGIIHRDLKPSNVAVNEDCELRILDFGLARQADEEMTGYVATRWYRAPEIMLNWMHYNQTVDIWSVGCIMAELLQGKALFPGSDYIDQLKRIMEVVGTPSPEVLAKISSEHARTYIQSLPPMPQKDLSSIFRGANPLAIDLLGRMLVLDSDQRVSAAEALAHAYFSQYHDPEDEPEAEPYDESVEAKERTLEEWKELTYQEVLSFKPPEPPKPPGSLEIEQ

Cdk5 = Cdk5 (Homo sapiens, UniProt Q00535); conditions: cited from earlier work
Sequence of Cdk5 (Q00535 whole entry, species assumed): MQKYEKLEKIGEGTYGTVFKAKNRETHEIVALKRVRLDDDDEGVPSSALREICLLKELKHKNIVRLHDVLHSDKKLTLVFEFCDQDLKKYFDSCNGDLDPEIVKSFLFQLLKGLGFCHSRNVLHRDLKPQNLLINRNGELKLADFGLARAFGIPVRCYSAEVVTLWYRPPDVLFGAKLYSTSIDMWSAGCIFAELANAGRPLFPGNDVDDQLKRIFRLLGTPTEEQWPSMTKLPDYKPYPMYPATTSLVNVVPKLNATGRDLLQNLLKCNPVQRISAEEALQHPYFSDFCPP
Sequence of Cdk5 (Q15078 99-307 partner limits assumed, species assumed): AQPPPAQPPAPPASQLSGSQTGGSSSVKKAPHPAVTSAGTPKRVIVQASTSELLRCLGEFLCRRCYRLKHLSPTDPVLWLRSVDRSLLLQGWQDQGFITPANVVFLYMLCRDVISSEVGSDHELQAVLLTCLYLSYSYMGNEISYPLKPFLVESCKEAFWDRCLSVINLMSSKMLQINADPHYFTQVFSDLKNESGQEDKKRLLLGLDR

colon CSCs [11] = test: dose-response analysis on four colon CSCs; type: cell-based, human; conditions: single agent, escalating doses, four colon CSC lines
Procedure: as §1, with “(v/v). Recombinant human Killer TRAIL was purchased from Alexis (San Diego, Calif., USA) while Geldanamycin, 17-AAG and 17-DMAG were purchased from Calbiochem (Nottingham, UK). All agents were diluted into fresh medium at the specified concentrations. Measure of cell viability was performed using CelltiterGlo® luminescent assay (Promega Corporation, Madison, Wis., USA) and luminescence was recorded on Beckman Coulter DTX880 multimode reader (Beckman Coulter Inc., Fullerton, Calif., USA) with an integration time of 100 ms.” for “(v/v).”

[12] = single agent, 5 μM, viability after 48 h, four colon CSC lines

Question: For `Nc1ncnc2c1c(I)cn2[C@@H]1O[C@H](CO)[C@@H](O)[C@H]1O` [5-Iodotubercidin], which “effect on colon CSC proliferation / number versus DMSO controls” value (colon CSCs [1]; [12]) is on record?
Answer: significantly lead to a reduction in colon CSC numbers

Question: And the IC50 [2]?
Answer: 0.4 to 28 µM

Question: Which “effect of combination with TRAIL on normalized viability” value [3] does the source give for `C=CCNC1=C2C[C@@H](C)C[C@H](OC)[C@H](O)[C@@H](C)/C=C(\C)[C@H](OC(N)=O)[C@@H](OC)/C=C\C=C(/C)C(=O)NC(=CC1=O)C2=O` [17-AAG, 17-Allylamino-17-demethoxygeldanamycin] here?
Answer: synergistic effect; also recorded: rapidly (24 h) sensitized to TRAIL treatment

Question: And the “sensitization of tumor cell lines to TRAIL” value (colon cancer cell lines)?
Answer: sensitizes colon cancer cell lines; also recorded: TRAIL resistance can be overcome

Question: Which “sensitivity of the TRAIL-resistant colon CSC line to single agent” value (CTSC#85) does the source give for `CO[C@H]1/C=C\C=C(/C)C(=O)NC2=CC(=O)C(NCCN(C)C)=C(C[C@@H](C)C[C@H](OC)[C@H](O)[C@@H](C)/C=C(\C)[C@@H]1OC(N)=O)C2=O` [17-DMAG, 17-dimethylaminoethylamino-17-demethoxy-geldanamycin] here?
Answer: sensitive

Question: Which “effect on colon CSC proliferation / number versus DMSO controls” value (colon CSCs [1]; [12]) does the source give for `CC(C)(C)c1cc(C=C(C#N)C#N)cc(C(C)(C)C)c1O` [AG 17] here?
Answer: significantly lead to a reduction in colon CSC numbers

Question: And the IC50 [4]?
Answer: 0.5 µM

Question: For `COc1cc2ncc(-c3ccccc3)nc2cc1OC` [AG 1296], which IC50 (human PDGF a-receptors) is on record?
Answer: 1 µM

Question: What about the IC50 (human PDGF b-receptors) of the same molecule?
Answer: 0.8 µM

Question: And the inhibition (c-kit)?
Answer: c-kit (80% inhibition at 5 μM)

Question: For `Cc1ccc(S(=O)(=O)/C=C/C#N)cc1` [BAY 11-7082], which IC50 [5] is on record?
Answer: 10 µM

Question: With `O=S(=O)(c1cccc2cnccc12)N1CCCNCC1` [HA-1077] as the molecule, how does the “effect on colon CSC proliferation / number versus DMSO controls” value (colon CSCs [1]; [12]) read?
Answer: lead to significant proliferation

Question: What about the Ki (protein kinase G) of the same molecule?
Answer: 1.6 µM

Question: And the Ki [6]?
Answer: 36 µM

Question: With `CN([C@@H](Cc1ccc(OS(=O)(=O)c2cccc3cnccc23)cc1)C(=O)N1CCN(c2ccccc2)CC1)S(=O)(=O)c1cccc2cnccc12` [KN-62] as the molecule, how does the Ki (rat brain CaM kinase II) read?
Answer: 0.9 µM

Question: Which Ki (CaM kinase II) does the source give for `COc1ccc(S(=O)(=O)N(CCO)c2ccccc2CN(C)C/C=C/c2ccc(Cl)cc2)cc1` [KN-93] here?
Answer: 0.37 µM

Question: What does the source list for `Cn1cc(C2=C(c3cn(CCCSC(=N)N)c4ccccc34)C(=O)NC2=O)c2ccccc21` [Ro-31-8220]?
Answer: effect on colon CSC proliferation / number versus DMSO controls (colon CSCs [1]; [12]): significantly lead to a reduction in colon CSC numbers; IC50 (protein kinase A): 0.9 µM; IC50 (CaM kinase II): 17 µM; IC50 (protein kinase C (PKC)): 0.01 µM; IC50 [7]: 0.0068 µM; IC50 [8]: 0.0028 µM

Question: Which “effect on colon CSC proliferation / number versus DMSO controls” value (colon CSCs [1]; [12]) does the source give for `CC(=O)c1c(O)c(C)c(O)c(Cc2c(O)c3c(c(C(=O)/C=C/c4ccccc4)c2O)OC(C)(C)C=C3)c1O` [Rottlerin] here?
Answer: significantly lead to a reduction in colon CSC numbers

Question: What about the IC50 (PKCd) of the same molecule?
Answer: 3 to 6 µM

Question: For `Oc1ccc(-c2nc(-c3ccncc3)c(-c3ccc(F)cc3)[nH]2)cc1` [SB 202190], which “effect on colon CSC proliferation / number versus DMSO controls” value (colon CSCs [1]; [12]) is on record?
Answer: lead to significant proliferation

Question: What about the IC50 [9] of the same molecule?
Answer: 30 to 42 µM

Question: And the IC50 (CaM kinase III)?
Answer: 5.3 µM

Question: And the IC50 (PKCe, PKCh, and PKCz)?
Answer: 80 to 100 µM

Question: With `Cc1ccc(NC(=O)c2cccc(N(C)C)c2)cc1NC(=O)c1ccc(O)cc1` [ZM 336372] as the molecule, how does the “effect on colon CSC proliferation / number versus DMSO controls” value (colon CSCs [1]) read?
Answer: lead to significant proliferation

Question: What about the “increased potency on c-Raf compared to B-Raf” value (c-Raf) of the same molecule?
Answer: ten-fold

Question: What about the “inhibition of many other protein kinases” value [10] of the same molecule?
Answer: potency compared to B-Raf, but does not inhibit many other

Question: What about the IC50 (SAPK2a/p38a) of the same molecule?
Answer: 2 µM

Question: What about the IC50 (SAPK2b/p38b2) of the same molecule?
Answer: 2 µM

Question: Which IC50 (Cdk5) does the source give for Indirubin-3′-monoxime here?
Answer: 0.1 µM

B1: TRAIL: Tumor necrosis factor-related apoptosis-inducing ligand; recombinant human Killer TRAIL from Alexis (protein, UniProt P50591 1-281, looked up)
Tumor necrosis factor ligand …: MAMMEVQGGPSLGQTCVLIVIFTVLLQSLCVAVTYVYFTNELKQMQDKYSKSGIACFLKEDDSYWDPNDEESMNSPCWQVKWQLRQLVRKMILRTSEETISTVQEKQQNISPLVRERGPQRVAAHITGTRGRSNTLSSPNSKNEKALGRKINSWESSRSGHSFLSNLHLRNGELVIHEKGFYYIYSQTYFRFQEEIKENTKNDKQMVQYIYKYTSYPDPILLMKSARNSCWSKDAEYGLYSIYQGGIFELKENDRIFVSVTNEHLIDMDHEASFFGAFLVG
Question: For B1, which “resistance of colon CSCs to treatment alone” value (colon CSCs [11]) is on record?
Answer: One out of four colon CSCs is resistant
